Test results reported in patent publication US8765684B2, “Solid materials of {[(2S,5R,8S,11S)-5-benzyl-11-(3-guanidino-propyl)-8-isopropyl-7-methyl-3,6,9,12,15-pentaoxo-1,4,7,10,13-pentaaza-cyclopentadec-2-yl]-acetic acid} and methods for obtaining them” (Merck Patent GmbH, priority 2009, dated 2014).
Values joined by “and” are separate entries in the source; they are usually repeats but may differ in a detail not shown here. Equal values may be shown once.

Legend:
[1] = type: physicochemical
Procedure: In the respective dynamic vapor sorption experiments discussed in more detail herein using ethanol vapor at 98% relative saturation for the Dihydrate-diethanolate/crystalline form S2 at 25° C. starting with the tetrahydrate a mass gain of 17% has been obtained. This is in good agreement with the above shown results for the tetraethanolate (calculated 117.0%, i.e. 17.0% of mass gain). Preferably, the tetrasolvates according to the invention, more preferably the Dihydrate-diethanolate, the Dihydrate-ethanolate, the Dihydrate-monoethanolate, the Diethanolate and/or the desolvates thereof, and especially the crystalline form S2 can be characterised, alternatively or additionally, by dynamic vapour experiments using water vapour and/or methanol vapour. The results can be obtained by standard techniques as described in Rolf Hilfiker, ‘Polymorphism in the Pharmaceutical Industry’, Wiley-VCH. Weinheim 2006 (Chapter 9: Water Vapour Sorption, and references therein). […] Upon water vapour adsorption, an assembly of water molecules in the lattice is observed, with a maximum weight gain of approx. 6.4 wt % at elevated rh. In the second desorption cycle a total mass loss of approx. 9.2 wt % is observed. For a Dihydrate Di-Ethanolate of the compound of formula I, the calculated Ethanol content equals 12.5 wt %. […] Thus, crystalline form S2 is a crystalline Ethanol solvate form or a mixed water/ethanol solvate form, preferably selected from the Dihydrate-ethanolate, the Dihydrate-monoethanolate, the Diethanolate and/or the desolvates thereof, which can be obtained e.g. via Ethanol Vapour Sorption, preferably via Ethanol Vapour Sorption starting with a hydrate structure, such as the hydrates according to the invention and especially the tetrahydrate according to the invention, i.e. crystalline form S3. From the Ethanol Vapour Sorption curve as shown in FIG. 21 and as discussed above, it can be seen that at elevated Ethanol partial pressure, approx. 17 wt % Ethanol are taken up by the sample.

[2] = Conditioning of amorphous Cilengitide under mixed water-ethanol atmospheres (stoichiometry by KF, HS-GC, NMR); type: physicochemical
Description: Stoichiometries as determined by Karl-Fischer titration (KF) for quantification of water and head space gas-chromatography (HS-GC) (and nuclear magnetic resonance spectroscopy (NMR)) for quantification of ethanol are depicted in Table 3. In the table also points representing stochiometries with more than 4 molecules of water per molecule of Cilengitide are visible. As there is no space for more than 4 molecules of water in the crystal lattice excess amounts of more than 4 molecules of water represent adsorbed moisture.
Also the modifications and the lattice parameters from indexing of the diffractograms are compiled in Table 3.

[3] = per 1 mol Cil, EtOH liquid phase 10 v %
[4] = per 1 mol Cil, EtOH liquid phase 20 v %
[5] = per 1 mol Cil, EtOH liquid phase 50 v %
[6] = per 1 mol Cil, EtOH liquid phase 70 v %
[7] = per 1 mol Cil, EtOH liquid phase 80 v %
[8] = per 1 mol Cil, EtOH liquid phase 85 v %
[9] = per 1 mol Cil, EtOH liquid phase 90 v %
[10] = per 1 mol Cil, EtOH liquid phase 95 v %
[11] = per 1 mol Cil, EtOH liquid phase 100 v %

cyclo-(Arg-Gly-Asp-DPhe-NMe-Val) [crystalline form S2]
Thermodynamic stability of the form [1]: thermodynamically stable form | Ethanol taken up by the sample ([1]; elevated Ethanol partial pressure, starting with a hydrate structure): approx. 17 wt % | Mass gain ([1]; ethanol vapor at 98% relative saturation, 25° C., starting with the tetrahydrate): 17% | EtOH HS-GC ([2]; EtOH liquid phase 10 v %): 3.2 wt % | H2O KF ([2]; EtOH liquid phase 10 v %): 9.5 wt % | Σ TG ([2]; EtOH liquid phase 10 v %): 12.5 wt % | EtOH HS-GC ([2]; EtOH liquid phase 20 v %): 4.3 wt % | H2O KF ([2]; EtOH liquid phase 20 v %): 8.4 wt % | Σ TG ([2]; EtOH liquid phase 20 v %): 13.0 wt % | EtOH HS-GC ([2]; EtOH liquid phase 50 v %): 6.9 wt % and 6.2 wt % | H2O KF ([2]; EtOH liquid phase 50 v %): 7.8 wt % and 6.8 wt % | Σ TG ([2]; EtOH liquid phase 50 v %): 13.7 wt % and 12.6 wt % | EtOH HS-GC ([2]; EtOH liquid phase 70 v %): 6.4 wt % | H2O KF ([2]; EtOH liquid phase 70 v %): 6.2 wt % | Σ TG ([2]; EtOH liquid phase 70 v %): 12.4 wt % | EtOH HS-GC ([2]; EtOH liquid phase 80 v %): 6.7 wt % | H2O KF ([2]; EtOH liquid phase 80 v %): 5.9 wt % | Σ TG ([2]; EtOH liquid phase 80 v %): 12.8 wt % | EtOH HS-GC ([2]; EtOH liquid phase 85 v %): 9.1 wt % | H2O KF ([2]; EtOH liquid phase 85 v %): 4.1 wt % | Σ TG ([2]; EtOH liquid phase 85 v %): 12.9 wt % | EtOH HS-GC ([2]; EtOH liquid phase 90 v %): 12.5 wt % | H2O KF ([2]; EtOH liquid phase 90 v %): 1.7 wt % and 1.2 wt % | Σ TG ([2]; EtOH liquid phase 90 v %): 13.8 wt % and 13.6 wt % | EtOH HS-GC ([2]; EtOH liquid phase 95 v %): 13.1 wt % | H2O KF ([2]; EtOH liquid phase 95 v %): 0.4 wt % | Σ TG ([2]; EtOH liquid phase 95 v %): 13.7 wt % | EtOH HS-GC ([2]; EtOH liquid phase 100 v %): 13.6 wt % | H2O KF ([2]; EtOH liquid phase 100 v %): 0.7 wt % | Σ TG ([2]; EtOH liquid phase 100 v %): 14.0 wt % | EtOH HS-GC [2, 3]: 0.5 mol | EtOH NMR [2, 3]: 0.5 mol | H2O KF [2, 3]: 3.6 mol | EtOH HS-GC [2, 4]: 0.6 mol | EtOH NMR [2, 4]: 0.7 mol | H2O KF [2, 4]: 3.1 mol | EtOH HS-GC [2, 5]: 1.0 mol and 0.9 mol | EtOH NMR [2, 5]: 1.0 mol | H2O KF [2, 5]: 3.0 mol and 2.5 mol | EtOH HS-GC [2, 6]: 0.9 mol | H2O KF [2, 6]: 2.3 mol | EtOH HS-GC [2, 7]: 1.0 mol | H2O KF [2, 7]: 2.2 mol | EtOH HS-GC [2, 8]: 1.3 mol | H2O KF [2, 8]: 1.5 mol | EtOH HS-GC [2, 9]: 1.9 mol | H2O KF [2, 9]: 0.6 mol and 0.5 mol | EtOH HS-GC [2, 10]: 1.9 mol | H2O KF [2, 10]: 0.2 mol | EtOH HS-GC [2, 11]: 2.0 mol | EtOH NMR [2, 11]: 2.0 mol | H2O KF [2, 11]: 0.3 mol
